Laboratory results published in PubChem BioAssay AID256 (DTP/NCI, 2004).
Several values for one entry are separate records, joined by “and”; a condition that tells them apart may be missing. Identical values can stand only once. Inconclusive results and toxic doses are left out. Rule for the calls: active = survival T/C of 150% or more; inactive = T/C below 125% in these data.

Tested on: CD2F1 mice, L1210 leukemia ip, survival T/C
Assay: NCI In Vivo Anticancer Drug Screen. Data for tumor model L1210 Leukemia (intraperitoneal) in CD2F1 (CDF1) mice
Settings: higher = longer survival
Outline: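 Compound-dosed mice with transplantable tumor versus matched vehicle controls; endpoint ratio T/C reported.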

[1] = endpoint: mean survival time, dose: 100.0 mg/kg/injection, schedule: Q01DX009 (ip), vehicle: saline with Tween-80
[2] = endpoint: mean survival time, dose: 200.0 mg/kg/injection, schedule: Q01DX009 (ip), vehicle: saline with Tween-80
[3] = endpoint: mean survival time, dose: 400.0 mg/kg/injection, schedule: Q01DX009 (ip), vehicle: saline with Tween-80
[4] = endpoint: mean survival time, dose: 100.0 mg/kg/injection, schedule: Q01DX001 (ip), vehicle: saline with Tween-80
[5] = endpoint: mean survival time, dose: 200.0 mg/kg/injection, schedule: Q01DX001 (ip), vehicle: saline with Tween-80
[6] = endpoint: mean survival time, dose: 400.0 mg/kg/injection, schedule: Q01DX001 (ip), vehicle: saline with Tween-80
[7] = endpoint: mean survival time, dose: 25.0 mg/kg/injection, schedule: Q01DX009 (ip), vehicle: saline with Tween-80
[8] = endpoint: mean survival time, dose: 50.0 mg/kg/injection, schedule: Q01DX009 (ip), vehicle: saline with Tween-80
[9] = endpoint: mean survival time, dose: 100.0 mg/kg/injection, schedule: Q04DX003 (ip), vehicle: saline
[10] = endpoint: mean survival time, dose: 200.0 mg/kg/injection, schedule: Q04DX003 (ip), vehicle: saline
[11] = endpoint: mean survival time, dose: 100.0 mg/kg/injection, schedule: Q04DX003 (ip), vehicle: saline with Tween-80
[12] = endpoint: mean survival time, dose: 200.0 mg/kg/injection, schedule: Q04DX003 (ip), vehicle: saline with Tween-80
[13] = endpoint: mean survival time, dose: 100.0 mg/kg/injection, schedule: Q04DX002 (ip), vehicle: saline with Tween-80

Measured: T/C

COc1cccc(/C=N/NC(=O)CNC(=O)Nc2cccc(Cl)c2)c1OC
inactive: [1] 101 % of control | [2] 109 % of control | [3] 103 % of control

O=C(Cc1ccc([N+](=O)[O-])cc1)Nc1ccc(O)cc1
inactive: [4] 98 % of control | [5] 104 % of control | [6] 101 % of control

NC(c1ccccc1)C(N)c1ccccc1 (configuration not stated)
inactive: endpoint: mean survival time, dose: 25.0 mg/kg/injection, schedule: Q04DX003 (ip), vehicle: other 102 % of control | endpoint: mean survival time, dose: 50.0 mg/kg/injection, schedule: Q04DX003 (ip), vehicle: other 94 % of control | endpoint: mean survival time, dose: 100.0 mg/kg/injection, schedule: Q04DX003 (ip), vehicle: other 88 % of control

C[n+]1c(/C=C/c2ccccc2Cl)ccc2ccccc21
inactive: endpoint: mean survival time, dose: 12.5 mg/kg/injection, schedule: Q01DX009 (ip), vehicle: saline with Tween-80 94 % of control | [7] 100 % of control | [8] 96 % of control | endpoint: mean survival time, dose: 50.0 mg/kg/injection, schedule: Q04DX003 (ip), vehicle: saline with Tween-80 95 % of control

C1CCC(N(C2CCCCC2)C2CCCCC2)CC1
inactive: [4] 107 % of control | [5] 104 % of control | endpoint: mean survival time, dose: 300.0 mg/kg/injection, schedule: Q01DX001 (ip), vehicle: saline with Tween-80 96 % of control

C[C@@H](C[P+](c1ccccc1)(c1ccccc1)c1ccccc1)[C@](OC(=O)c1ccccc1)(C(=O)c1ccccc1)c1ccccc1
inactive: endpoint: mean survival time, dose: 6.25 mg/kg/injection, schedule: Q01DX001 (ip), vehicle: saline with Tween-80 100 % of control | endpoint: mean survival time, dose: 12.5 mg/kg/injection, schedule: Q01DX001 (ip), vehicle: saline with Tween-80 105 % of control | endpoint: mean survival time, dose: 25.0 mg/kg/injection, schedule: Q01DX001 (ip), vehicle: saline with Tween-80 109 % of control

Nc1ccccc1O
inactive: [1] 114 % of control | [9] 100 % of control | [2] 114 % of control | [10] 96 % of control | endpoint: mean survival time, dose: 400.0 mg/kg/injection, schedule: Q04DX003 (ip), vehicle: saline 119 % of control

COc1cc2c(cc1OC)C[N+]1(C)CCc3cc(OC)c(OC)cc3C1C2 (configuration not stated)
inactive: endpoint: mean survival time, dose: 5.0 mg/kg/injection, schedule: Q01DX001 (ip), vehicle: saline 97 % of control | endpoint: mean survival time, dose: 10.0 mg/kg/injection, schedule: Q01DX001 (ip), vehicle: saline 93 % of control | endpoint: mean survival time, dose: 20.0 mg/kg/injection, schedule: Q01DX001 (ip), vehicle: saline 103 % of control | endpoint: mean survival time, dose: 40.0 mg/kg/injection, schedule: Q01DX001 (ip), vehicle: saline 97 % of control

COCCCNc1ccc([N+](=O)[O-])cn1
inactive: endpoint: mean survival time, dose: 50.0 mg/kg/injection, schedule: Q01DX001 (ip), vehicle: carboxymethylcellulose (CMC) 100 % of control | endpoint: mean survival time, dose: 100.0 mg/kg/injection, schedule: Q01DX001 (ip), vehicle: carboxymethylcellulose (CMC) 100 % of control | endpoint: mean survival time, dose: 200.0 mg/kg/injection, schedule: Q01DX001 (ip), vehicle: carboxymethylcellulose (CMC) 108 % of control

CCC[CH2][Pb]([Cl])([CH2]CCC)[CH2]CCC
inactive: endpoint: mean survival time, dose: 1.5 mg/kg/injection, schedule: Q01DX009 (ip), vehicle: saline with Tween-80 96 % of control | endpoint: mean survival time, dose: 3.0 mg/kg/injection, schedule: Q01DX009 (ip), vehicle: saline with Tween-80 96 % of control | endpoint: mean survival time, dose: 6.0 mg/kg/injection, schedule: Q01DX009 (ip), vehicle: saline with Tween-80 93 % of control | endpoint: mean survival time, dose: 6.25 mg/kg/injection, schedule: Q04DX003 (ip), vehicle: saline with Tween-80 93 % of control | endpoint: mean survival time, dose: 12.5 mg/kg/injection, schedule: Q04DX003 (ip), vehicle: saline with Tween-80 87 % of control | endpoint: mean survival time, dose: 25.0 mg/kg/injection, schedule: Q04DX003 (ip), vehicle: saline with Tween-80 93 % of control

Cc1ccccc1C1(O)CCCCC1
inactive: [7] 114 % of control | [8] 98 % of control and 108 % of control | [1] 90 % of control | [11] 93 % of control | [2] 90 % of control | [12] 94 % of control

[N-]=[N+]=NCc1cn(C2CC(O)C(CO)O2)c(=O)[nH]c1=O (configuration not stated)
inactive: endpoint: mean survival time, dose: 6.25 mg/kg/injection, schedule: Q01DX005 (ip), vehicle: water 91 % of control | endpoint: mean survival time, dose: 12.5 mg/kg/injection, schedule: Q01DX005 (ip), vehicle: water 111 % of control | endpoint: mean survival time, dose: 25.0 mg/kg/injection, schedule: Q01DX005 (ip), vehicle: water 103 % of control | endpoint: mean survival time, dose: 50.0 mg/kg/injection, schedule: Q01DX005 (ip), vehicle: water 100 % of control

NC(=O)NC1CCCCCCC1
inactive: [1] 102 % of control | [2] 100 % of control | [3] 110 % of control

N=C(N)SCc1cccc([N+](=O)[O-])c1
inactive: [13] 97 % of control

CC(=O)CC(C)=O.CC(=O)CC(C)=O.O=N[O-].O=N[O-].[Co]
inactive: endpoint: median survival time, dose: 12.5 mg/kg/injection, schedule: Q01DX009 (ip), vehicle: saline with Tween-80 106 % of control and 108 % of control and 111 % of control | endpoint: median survival time, dose: 25.0 mg/kg/injection, schedule: Q01DX009 (ip), vehicle: saline with Tween-80 118 % of control and 111 % of control and 112 % of control | endpoint: median survival time, dose: 50.0 mg/kg/injection, schedule: Q01DX009 (ip), vehicle: saline with Tween-80 116 % of control and 118 % of control | endpoint: median survival time, dose: 100.0 mg/kg/injection, schedule: Q01DX009 (ip), vehicle: saline with Tween-80 90 % of control

CC(=O)/C(C#N)=C(\C)N
inactive: endpoint: mean survival time, dose: 50.0 mg/kg/injection, schedule: Q04DX002 (ip), vehicle: saline 103 % of control | endpoint: mean survival time, dose: 100.0 mg/kg/injection, schedule: Q04DX002 (ip), vehicle: saline 103 % of control | endpoint: mean survival time, dose: 200.0 mg/kg/injection, schedule: Q04DX002 (ip), vehicle: saline 103 % of control

Cc1c(C(=O)O)nc(CC(O)C(Cl)(Cl)Cl)[nH]c1=O (configuration not stated)
inactive: endpoint: mean survival time, dose: 25.0 mg/kg/injection, schedule: Q01DX005 (ip), vehicle: other 106 % of control | endpoint: mean survival time, dose: 50.0 mg/kg/injection, schedule: Q01DX005 (ip), vehicle: other 101 % of control | endpoint: mean survival time, dose: 100.0 mg/kg/injection, schedule: Q01DX005 (ip), vehicle: other 101 % of control | endpoint: mean survival time, dose: 200.0 mg/kg/injection, schedule: Q01DX005 (ip), vehicle: other 103 % of control | endpoint: mean survival time, dose: 400.0 mg/kg/injection, schedule: Q01DX005 (ip), vehicle: other 95 % of control

CC(C)(C)COC(=S)Oc1ccc(C(C)(C)C)cc1
inactive: [13] 89 % of control | endpoint: mean survival time, dose: 200.0 mg/kg/injection, schedule: Q04DX002 (ip), vehicle: saline with Tween-80 104 % of control | endpoint: mean survival time, dose: 400.0 mg/kg/injection, schedule: Q04DX002 (ip), vehicle: saline with Tween-80 100 % of control

O=C(Cl)N(c1ccccc1)c1ccccc1
inactive: [4] 91 % of control | [5] 100 % of control

O=C(OC1=CCc2ccccc21)c1ccc([N+](=O)[O-])cc1
inactive: endpoint: mean survival time, dose: 50.0 mg/kg/injection, schedule: Q01DX001 (ip), vehicle: saline with Tween-80 101 % of control | [4] 96 % of control and 97 % of control | [5] 121 % of control and 96 % of control | [6] 95 % of control and 97 % of control

O=CC1C(=O)N(c2ccccc2)c2ccccc21 (configuration not stated)
inactive: endpoint: mean survival time, dose: 50.0 mg/kg/injection, schedule: Q04DX003 (ip), vehicle: Klucel (hydroxypropylcellulose) (HPC) 98 % of control | endpoint: mean survival time, dose: 100.0 mg/kg/injection, schedule: Q04DX003 (ip), vehicle: Klucel (hydroxypropylcellulose) (HPC) 106 % of control | endpoint: mean survival time, dose: 200.0 mg/kg/injection, schedule: Q04DX003 (ip), vehicle: Klucel (hydroxypropylcellulose) (HPC) 96 % of control

O=C(O)/C=C(/CC(=O)O)C(=O)O
inactive: [9] 98 % of control | [10] 94 % of control

OC(c1ccc(Cl)cc1)c1ccc(Cl)cc1
inactive: [4] 105 % of control | [5] 90 % of control | [6] 109 % of control

CCOC1CCN(CCCn2c3ccccc3c3ccccc32)CC1
inactive: endpoint: mean survival time, dose: 25.0 mg/kg/injection, schedule: Q04DX002 (ip), vehicle: saline with Tween-80 95 % of control | endpoint: mean survival time, dose: 50.0 mg/kg/injection, schedule: Q04DX002 (ip), vehicle: saline with Tween-80 100 % of control | [13] 97 % of control and 111 % of control

CC(C)(C)NC(=O)C1C2CCC(C2)C1C(=O)NC(C)(C)C (configuration not stated)
inactive: [11] 98 % of control | [12] 102 % of control | endpoint: mean survival time, dose: 400.0 mg/kg/injection, schedule: Q04DX003 (ip), vehicle: saline with Tween-80 98 % of control

Cc1cc(C)c(N2C(=O)C=CC2=O)c(C)c1
inactive: endpoint: mean survival time, dose: 6.25 mg/kg/injection, schedule: Q01DX009 (ip), vehicle: saline with Tween-80 94 % of control
